Results from patent publication US11879140B2, “P21 mRNA targeting DNAzymes” (1E Therapeutics Ltd., priority 2020, dated 2024).
Entries after “also recorded” stand apart in the source; their conditions may differ.

Legend:
p21 protein [1] = test: Immunofluorescence of p21 protein in senescent cells; assay type: cell-based, human; conditions: 48 hour treatment, 1000 nM, compared to control scramble (FIG. 5G)
Description: 48 hours following transfection. IMR-90 cells were fixed by PFA 4% following the indicated treatments. Cells were blocked and incubated with antibodies against human p21 (CST) in blocking solution. Cells were then incubated with Dylight-549-conjugated secondary antibody (Jackson ImmunoResearch) and counterstained with DAPI (Sigma). Images were acquired using Nikon Eclipse Ti2 microscope at ×10 magnification.
(§1) Alternatively, cells were fixed with 4% Formaldehyde for 15 minutes, permeabilized in 0.2% […] for 5 minutes and blocked with 2% bovine serum albumin (BSA) for 30 min in room temperature. Cells were then incubated with a primary or with a conjugated antibody over-night or for 3 hours respectively. For unconjugated antibodies, a corresponding fluorescently-labelled secondary antibody was added for 1 hour, followed by Hoechst counterstaining. Cells were washed with PBS three times following each step. Images were acquired using Nikon Eclipse Ti2 microscope at ×10 magnification.
(§2) Antibodies were diluted in blocking solution as indicated below: 53BP1 antibody (Novus biologicals NB100-304, 1:800), Phospho-histone H2AX antibody (Cell signaling #2577, 1:800), p21 Waf1/Cip1 antibody (Cell signaling #8865, 1:500), p16 antibody (Santa Cruz sc-56330, 1:200), Alexa Fluor-488 goat anti mouse (Thermo Fisher A11029, 1:1000).

p21 mRNA = test: Quantitative RT-PCR of p21 mRNA in senescent cells; assay type: cell-based, human; conditions: over 24 hours following treatment, 2000 nM (FIG. 5D)
Description: Total RNA was extracted from IMR-90 cells using NucleoSpin® RNA (Macherey-Nagel™), according to the manufacturer protocol. Complementary DNA was prepared using the M-MLV Reverse Transcriptase (Promega), according to the manufacturer protocol. Quantitative real-time PCR was performed using the SYBR Green PCR master-mix (Applied Biosystems) on a CFX96 Real-Time PCR System (Bio Rad). See primer sequences in Table 1, above.

p21 protein [2] = test: p21 protein staining in HepG2 cells; assay type: cell-based, human; conditions: Etoposide alone or together with DNAzyme (FIGS. 15A-B)
Description: as §1, §2

[3] = DNAzyme stability analysis in BALF; assay type: in vitro ADME, mice
Description: DNAzyme stability was assessed by incubation with PBS, plasma and BALF (Bronchoalveolar Lavage Fluid). A comparison between unmodified and 3′Inverted dT modification was made. Following incubation for the indicated time points, samples were analyzed using gel electrophoresis. Quantification compared to time 0 was performed using Image Lab software (Bio Rad).

p21 protein [4] = test: p21 protein in HepG2 cell lysate (IF and ELISA); assay type: cell-based, human; conditions: Etoposide alone or with scramble or DNAzyme 1670 (FIGS. 15B-C)
Description: p21 protein quantification was analyzed using (Human p21 ELISA Kit—ab214658, Abcam), according to the manufacturer's instructions. The cell pellets were incubated with Cell Extraction Buffer PTR on ice for 20 minutes. Following Centrifuge at 18,000×g for 20 minutes, the sample protein concentrations were quantified using a BCA protein assay. The samples and Antibody Cocktail were added to appropriate wells and incubated for one hour at room temperature (RT), followed by three washes with Wash Buffer and incubation with TMB Development Solution for 15 minutes at RT. Then, the Stop Solution was added, the samples were incubated for 1 minute, and the samples were read by absorbance at 450 nm using plate reader.

[5] = tested on: senescent human IMR-90 fibroblast cells; assay type: cell-based; conditions: increasing concentrations (FIGS. 6A-C, 12A-C)
Method in brief: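 Senescence was induced by etoposide at […] for 48 h, with the phenotype present 7 days later, or by H-RasG12 or long-term passaging. Cells grown at 5% oxygen were transfected with DNAzymes by Lipofectamine 2000, and survival was scored 3-6 days later by PrestoBlue relative to Lipofectamine-only control.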

In the case of “DNAzyme 1670: SEQ ID NO: 54: GGGAAAGGAggctagctacaacgaAAGGGGGAG (DNA GGGAAAGGAGGCTAGCTACAACGAAAGGGGGAG; DNA, backbone and methylation of C not given here)”, the p21 protein levels (p21 protein [1]) is reported as “significantly reduced”, the “p21 mRNA knockdown” value (p21 mRNA) is reported as 57% and the “p21 protein immunofluorescent staining in HepG2 cells” value (p21 protein [2]) is reported as “significant decrease in staining; also recorded: p21 upregulation is blocked”. For the same substance, the “stability in BALF of diseased (bleomycin) mice compared to naive BALF” value ([3]; FIG. 13C) was “lower”, the “start of reduction in size (below full length) in BALF” value ([3]; unmodified DNAzyme, from the start of incubation (FIG. 13A)) was 24 h and the “time to degradation / stability in BALF” value ([3]; with 3′ inverted dT modification versus unmodified (FIGS. 7B, 13C)) was “significantly increased”. For the same substance, the “p21 protein in cell lysate” value (p21 protein [4]) was “can counteract the upregulation in p21 levels” and the “selectivity of killing, senescent versus growing IMR-90 cells” value [5] was “wide range of selective doses”.
